Holding throughout (assay type): cell-based
In experiment [1] the target is T1, human TLR7 (Homo sapiens, UniProt Q9NYK1).
T1 construct: host or cells: HEK-Blue cells
T1 sequence (Q9NYK1 27-1049): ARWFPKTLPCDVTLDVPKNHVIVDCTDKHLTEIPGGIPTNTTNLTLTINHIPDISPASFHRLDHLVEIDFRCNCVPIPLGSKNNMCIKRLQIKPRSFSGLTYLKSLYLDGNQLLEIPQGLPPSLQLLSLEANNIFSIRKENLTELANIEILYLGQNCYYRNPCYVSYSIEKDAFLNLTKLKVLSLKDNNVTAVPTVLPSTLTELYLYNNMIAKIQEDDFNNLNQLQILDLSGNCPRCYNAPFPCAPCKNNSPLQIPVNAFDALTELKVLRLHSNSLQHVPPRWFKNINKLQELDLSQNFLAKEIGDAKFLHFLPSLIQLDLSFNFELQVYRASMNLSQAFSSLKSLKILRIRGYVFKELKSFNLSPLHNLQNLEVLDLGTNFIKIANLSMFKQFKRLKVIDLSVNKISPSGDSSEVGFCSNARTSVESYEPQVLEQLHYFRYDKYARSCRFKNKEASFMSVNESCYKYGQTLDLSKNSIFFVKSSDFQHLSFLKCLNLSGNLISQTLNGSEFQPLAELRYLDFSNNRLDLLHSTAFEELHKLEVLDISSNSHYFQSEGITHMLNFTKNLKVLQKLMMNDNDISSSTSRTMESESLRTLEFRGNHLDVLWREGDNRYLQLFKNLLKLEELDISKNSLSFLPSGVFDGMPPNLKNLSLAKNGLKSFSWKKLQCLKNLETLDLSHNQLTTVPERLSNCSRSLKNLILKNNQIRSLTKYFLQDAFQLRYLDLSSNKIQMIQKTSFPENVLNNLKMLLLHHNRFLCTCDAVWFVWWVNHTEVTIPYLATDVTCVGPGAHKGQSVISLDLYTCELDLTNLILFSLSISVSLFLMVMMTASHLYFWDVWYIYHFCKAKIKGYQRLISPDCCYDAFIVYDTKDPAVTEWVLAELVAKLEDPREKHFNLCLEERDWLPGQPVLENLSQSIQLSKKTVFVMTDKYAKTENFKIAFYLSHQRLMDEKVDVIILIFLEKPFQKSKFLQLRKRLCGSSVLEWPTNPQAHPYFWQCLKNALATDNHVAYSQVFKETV
Nature of the experiment: TLR7 inhibition reporter assay (HEK-Blue SEAP reporter, gardiquimod stimulation). Conditions: HEK-Blue cells overexpressing human TLR7, SEAP reporter, gardiquimod 7.5 μM, 22 hour incubation. Put shortly:
(§1)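 Screening used HEK-Blue cells overexpressing one human TLR (7, 8 or 9) and an IFN-β minimal promoter–NF-κB/AP-1 SEAP construct. Stimulation lasted 22 h at 37 °C with receptor-specific agonist: gardiquimod, R848 or ODN2006 at 7.5 μM, 15.9 μM and 5 nM.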

The target of experiment [2] is T2, human TLR8 (Homo sapiens, UniProt Q9NR97).
T2 construct: host or cells: HEK-Blue cells
T2 sequence (Q9NR97 27-1041): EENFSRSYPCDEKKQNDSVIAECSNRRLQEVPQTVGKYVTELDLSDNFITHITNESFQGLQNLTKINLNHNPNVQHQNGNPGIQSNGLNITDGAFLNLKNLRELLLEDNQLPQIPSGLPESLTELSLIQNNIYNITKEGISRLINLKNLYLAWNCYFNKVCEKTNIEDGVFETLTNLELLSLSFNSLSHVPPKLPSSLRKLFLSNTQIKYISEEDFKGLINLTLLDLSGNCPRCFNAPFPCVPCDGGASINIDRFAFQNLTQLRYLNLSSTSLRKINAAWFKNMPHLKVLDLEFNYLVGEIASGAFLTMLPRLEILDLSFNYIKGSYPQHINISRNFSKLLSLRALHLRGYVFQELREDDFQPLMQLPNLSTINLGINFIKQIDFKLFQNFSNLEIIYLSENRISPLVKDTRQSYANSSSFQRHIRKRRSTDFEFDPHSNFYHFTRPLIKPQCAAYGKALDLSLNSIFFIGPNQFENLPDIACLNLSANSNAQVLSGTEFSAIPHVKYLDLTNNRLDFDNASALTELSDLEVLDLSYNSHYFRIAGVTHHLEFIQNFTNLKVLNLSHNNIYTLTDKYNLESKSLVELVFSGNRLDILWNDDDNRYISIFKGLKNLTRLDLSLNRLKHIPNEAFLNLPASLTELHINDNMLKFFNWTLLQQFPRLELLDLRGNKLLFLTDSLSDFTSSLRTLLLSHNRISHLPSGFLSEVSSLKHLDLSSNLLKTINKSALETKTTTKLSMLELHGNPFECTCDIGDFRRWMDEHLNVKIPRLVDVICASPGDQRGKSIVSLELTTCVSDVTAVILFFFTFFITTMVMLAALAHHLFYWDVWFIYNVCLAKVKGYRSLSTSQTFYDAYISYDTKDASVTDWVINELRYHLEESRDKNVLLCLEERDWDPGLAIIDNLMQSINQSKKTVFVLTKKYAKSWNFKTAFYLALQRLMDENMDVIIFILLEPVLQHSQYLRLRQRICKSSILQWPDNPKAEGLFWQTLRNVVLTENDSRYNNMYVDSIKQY
Description: TLR8 inhibition reporter assay (HEK-Blue SEAP reporter, R848 stimulation). As to conditions: HEK-Blue cells overexpressing human TLR8, SEAP reporter, R848 15.9 μM, 22 hour incubation. Summed up: as §1
For orientation: In a reporter assay the amount or activity of a reporter protein is the signal.

In experiment [3] the target is T3, human TLR9 (Homo sapiens, UniProt Q9NR96).
T3 construct: host or cells: HEK-Blue cells
T3 sequence (Q9NR96 26-1032): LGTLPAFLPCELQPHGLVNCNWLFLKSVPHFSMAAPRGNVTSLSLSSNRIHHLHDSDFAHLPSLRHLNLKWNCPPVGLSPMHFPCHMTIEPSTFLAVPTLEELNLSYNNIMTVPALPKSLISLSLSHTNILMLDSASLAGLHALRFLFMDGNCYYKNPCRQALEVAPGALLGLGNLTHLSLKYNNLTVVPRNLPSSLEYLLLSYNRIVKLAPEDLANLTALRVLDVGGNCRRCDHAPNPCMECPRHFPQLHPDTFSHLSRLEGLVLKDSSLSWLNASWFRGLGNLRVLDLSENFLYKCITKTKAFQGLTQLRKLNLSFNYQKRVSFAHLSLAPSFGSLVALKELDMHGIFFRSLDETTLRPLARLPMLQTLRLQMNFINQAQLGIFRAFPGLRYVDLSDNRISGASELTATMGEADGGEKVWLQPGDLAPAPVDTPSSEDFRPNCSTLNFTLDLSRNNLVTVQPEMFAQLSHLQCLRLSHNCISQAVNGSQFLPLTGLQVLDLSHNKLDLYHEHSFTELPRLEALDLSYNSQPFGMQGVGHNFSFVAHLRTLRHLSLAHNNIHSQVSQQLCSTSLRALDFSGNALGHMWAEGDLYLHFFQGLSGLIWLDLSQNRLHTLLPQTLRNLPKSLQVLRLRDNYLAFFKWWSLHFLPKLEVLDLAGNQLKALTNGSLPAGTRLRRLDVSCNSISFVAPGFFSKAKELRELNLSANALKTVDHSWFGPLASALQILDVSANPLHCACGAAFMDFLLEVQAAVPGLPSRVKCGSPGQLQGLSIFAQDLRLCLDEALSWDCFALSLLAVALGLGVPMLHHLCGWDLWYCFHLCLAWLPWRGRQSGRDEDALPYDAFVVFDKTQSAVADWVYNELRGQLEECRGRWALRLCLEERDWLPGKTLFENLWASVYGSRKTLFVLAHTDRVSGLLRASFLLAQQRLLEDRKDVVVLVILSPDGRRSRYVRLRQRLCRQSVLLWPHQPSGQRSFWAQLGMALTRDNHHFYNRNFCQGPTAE
Description: TLR9 inhibition reporter assay (HEK-Blue SEAP reporter, ODN2006 stimulation). Conditions: HEK-Blue cells overexpressing human TLR9, SEAP reporter, ODN2006 5 nM, 22 hour incubation. Summed up: as §1

A word on the IC50: it is the concentration at which inhibition is half-maximal. A low value points to greater potency.

As to `COc1cc(-c2[nH]c3ccc(C4CCNCC4)cc3c2C(C)C)cn(C)c1=O` [Example 20, 5-(3-isopropyl-5-(piperidin-4-yl)-1H-indol-2-yl)-3-methoxy-1-methylpyridin-2(1H)-one], the results for the IC50 in experiment [1], in experiment [2] and in experiment [3] were 6 nM, 17 nM and 1790 nM, respectively.
The like results for `Cc1cc(-c2[nH]c3ccc(C4CCN(CC(=O)N(C)C)CC4)cc3c2C(C)C)cn(C)c1=O` [Example 71, 2-(4-(2-(1,5-dimethyl-6-oxo-1,6-dihydropyridin-3-yl)-3-isopropyl-1H-indol-5-yl)piperidin-1-yl)-N,N-dimethylacetamide] were, in that order, 2.8 nM, 5.1 nM and 11000 nM.
For `Cc1c(-c2[nH]c3ccc(C4CCN(C5CCOCC5)CC4)cc3c2C(C)C)nn(C)c(=O)c1C` [Example 205, 6-(3-isopropyl-5-(1-(tetrahydro-2H-pyran-4-yl)piperidin-4-yl)-1H-indol-2-yl)-2,4,5-trimethylpyridazin-3(2H)-one], in that order: 501 nM, 19.8 nM and 8710 nM.
The like results for `Cc1cc(-c2[nH]c3ccc(C4CCN(CCC(C)C)CC4)cc3c2C(C)C)cn(C)c1=O` [Example 86, 5-(5-(1-isopentylpiperidin-4-yl)-3-isopropyl-1H-indol-2-yl)-1,3-dimethylpyridin-2(1H)-one] were, in that order, 2.1 nM, 4.6 nM and 2540 nM.
With `Cc1cc(-c2[nH]c3ccc(C4CCN(C(=O)CN(C)C)CC4)cc3c2C(C)C)cn(CC(C)C)c1=O` [Example 285, 5-(5-(1-(dimethylglycyl)piperidin-4-yl)-3-isopropyl-1H-indol-2-yl)-1-isobutyl-3-methylpyridin-2(1H)-one], the IC50 amounted to 14.6 nM in experiment [1], 99.1 nM in experiment [2] and 3410 nM in experiment [3].
The like results for `Cc1cc(-c2[nH]c3ccc(C4CCN(CC(C)C)CC4)cc3c2C(C)C)cn(C)c1=O` [Example 75, 5-(5-(1-isobutylpiperidin-4-yl)-3-isopropyl-1H-indol-2-yl)-1,3-dimethylpyridin-2(1H)-one] were, in that order, 5 nM, 5.6 nM and 9330 nM.
The like results for `COCCN1CCC(c2ccc3[nH]c(-c4cn(C)c(=O)c(Cl)c4C)c(C(C)C)c3c2)CC1` [Example 95, 3-chloro-5-(3-isopropyl-5-(1-(2-methoxyethyl)piperidin-4-yl)-1H-indol-2-yl)-1,4-dimethylpyridin-2(1H)-one] were, in that order, 7 nM, 7.8 nM and 6090 nM.
Regarding `Cc1cc(-c2[nH]c3ccc(C4CCN(CC(=O)N5CCCC5)CC4)cc3c2C(C)C)cn(C)c1=O` [Example 122, 5-(3-isopropyl-5-(1-(2-oxo-2-(pyrrolidin-1-yl)ethyl)piperidin-4-yl)-1H-indol-2-yl)-1,3-dimethylpyridin-2(1H)-one], the IC50 in experiment [1] turned out to be 4.9 nM; in experiment [2], 15.7 nM; in experiment [3], 14700 nM.
The like results for `Cc1cc(-c2[nH]c3ccc(C4CCN(CC(C)(C)O)CC4)cc3c2C(C)C)cn(C)c1=O` [Example 310, 5-(5-(1-(2-hydroxy-2-methylpropyl)piperidin-4-yl)-3-isopropyl-1H-indol-2-yl)-1,3-dimethylpyridin-2(1H)-one] were, in that order, 2.3 nM, 1.3 nM and 5540 nM.
The like results for `CNC(=O)CN1CCC(c2ccc3[nH]c(-c4cc(C)c(=O)n(C)c4)c(C(C)C)c3c2)CC1` [Example 117, 2-(4-(2-(1,5-dimethyl-6-oxo-1,6-dihydropyridin-3-yl)-3-isopropyl-1H-indol-5-yl)piperidin-1-yl)-N-methylacetamide] were, in that order, 2 nM, 5.3 nM and 14000 nM.
The like results for `Cc1c(-c2[nH]c3ccc(C4CCN(C(=O)CN(C)C)CC4)cc3c2C(C)C)cn(C)c(=O)c1Cl` [Example 278, 3-chloro-5-(5-(1-(dimethylglycyl)piperidin-4-yl)-3-isopropyl-1H-indol-2-yl)-1,4-dimethylpyridin-2(1H)-one] were, in that order, 5.3 nM, 21 nM and 3200 nM.
Turning to `Cc1cc(-c2[nH]c3ccc(C4CCN(CCCC(F)(F)F)CC4)cc3c2C(C)C)cn(C)c1=O` [Example 79, 5-(3-isopropyl-5-(1-(4,4,4-trifluorobutyl)piperidin-4-yl)-1H-indol-2-yl)-1,3-dimethylpyridin-2(1H)-one], the IC50 in experiment [1] came to 11.1 nM; in experiment [2], 10.8 nM; in experiment [3] it was 3790 nM.
For `CCCN1CCC(c2ccc3[nH]c(-c4cc(-c5cncnc5)c(=O)n(CC)c4)c(C(C)C)c3c2)CC1` [Example 260, 1-ethyl-5-(3-isopropyl-5-(1-propylpiperidin-4-yl)-1H-indol-2-yl)-3-(pyrimidin-5-yl)pyridin-2(1H)-one], in that order: 23.2 nM, 3.1 nM and 2240 nM.

The values above are taken from patent US11447466B2, “Substituted indole compounds useful as inhibitors of TLR7/8/9” (BRISTOL-MYERS SQUIBB COMPANY, priority 2017, dated 2022).
